A short description of data set [1]: Solubilizing paclitaxel in GRAS essential oils. Format: physicochemical.
Data set [2] can be described thus: Solubility of paclitaxel in eugenol and in egg phosphatidylcholine/eugenol/water mixture. It is filed as physicochemical. From the text:
The solubility of a given active in a mixture of hydrophobe and lipid is typically a very strongly increasing function of an increasing hydrophobe:lipid ratio, because the hydrophobe can generally be chosen specifically for its ability to solubilize the particular active whereas the choice of lipid has much more to do with its ability to form liquid crystals (in the presence of the hydrophobe, in particular).

Results on one molecule are retold here after patent US6991809B2, “Particles with improved solubilization capacity” (Lyotropic Therapeutics, Inc., priority 2001, dated 2006).

For the molecule `CC(=O)O[C@H]1C(=O)[C@@]2(C)[C@H]([C@H](OC(=O)c3ccccc3)[C@]3(O)C[C@H](OC(=O)[C@H](O)[C@@H](NC(=O)c4ccccc4)c4ccccc4)C(C)=C1C3(C)C)[C@]1(OC(C)=O)CO[C@@H]1C[C@@H]2O` [Paclitaxel], the “Paclitaxel solubility (w/w, approx)” value in data set [1] (in essential oil: Oil of bay) is given as around 16% w/w; in data set [1] (in essential oil: Sweet basil), around 7% w/w; in data set [1] (in essential oil: Thyme), around 10% w/w. Moreover, the “solubility in lipid/eugenol/water mixture” value in data set [2] (in a mixture of 42% egg phosphatidylcholine, 35% eugenol, and 23% water) is “less than 1.5%”. In addition, the solubility in eugenol entry in data set [2] (in eugenol) is reported as “over 15 % by weight”.
